pEC50, pKd: −log10 of the molar value. Active and inactive are the calls of the source. The calls are words filed in the database; no cut-off is given here.
Columns and labels:
HT-29 [1] = assay: Anti-necroptotic activity against TSZ induced necroptosis in human HT-29 cells preincubated for 12 hrs followed by TSZ addition by CellTiter-Glo luminescent cell viability assay; assay type: functional, cell-based
[2] = Cytotoxicity against human HT-29 cells assessed as reduction in cell viability; assay type: toxicity, cell-based
[3] = molecular target: T1, Receptor-interacting serine/threonine-protein kinase 1 (Homo sapiens, UniProt Q13546); assay: Binding affinity to RIPK1 (unknown origin)
T1 sequence (Q13546 whole entry): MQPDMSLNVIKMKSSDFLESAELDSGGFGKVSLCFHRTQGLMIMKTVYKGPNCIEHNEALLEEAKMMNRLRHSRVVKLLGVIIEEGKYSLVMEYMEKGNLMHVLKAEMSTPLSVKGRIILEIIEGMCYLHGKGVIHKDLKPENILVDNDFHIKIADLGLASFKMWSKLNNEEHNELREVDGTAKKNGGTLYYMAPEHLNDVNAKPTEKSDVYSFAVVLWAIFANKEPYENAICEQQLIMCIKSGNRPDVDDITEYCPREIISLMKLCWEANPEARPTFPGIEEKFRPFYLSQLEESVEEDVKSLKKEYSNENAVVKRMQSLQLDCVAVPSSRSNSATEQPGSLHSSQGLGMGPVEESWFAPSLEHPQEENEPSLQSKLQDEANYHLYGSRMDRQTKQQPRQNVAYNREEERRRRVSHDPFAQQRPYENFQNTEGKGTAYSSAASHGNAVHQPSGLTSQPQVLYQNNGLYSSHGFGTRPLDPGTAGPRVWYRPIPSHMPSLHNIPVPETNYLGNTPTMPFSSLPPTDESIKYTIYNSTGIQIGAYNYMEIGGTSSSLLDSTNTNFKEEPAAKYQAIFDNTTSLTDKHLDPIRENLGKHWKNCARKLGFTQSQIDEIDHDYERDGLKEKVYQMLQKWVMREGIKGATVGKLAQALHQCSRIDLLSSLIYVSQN

U-937 = assay: Anti-necroptotic activity against TSZ induced necroptosis in human U-937 cells preincubated with compound followed by TSZ addition for 12 hrs; assay type: functional, cell-based
HT-29 [4] = assay: Anti-necroptotic activity against TSZ induced necroptosis in human HT-29 cells incubated for 12 hrs; assay type: functional, cell-based
HT-29 [5] = assay: Anti-necroptotic activity against TCZ induced necroptosis in human HT-29 cells incubated for 16 hrs; assay type: functional, cell-based
[6] = molecular target: T2, Receptor-interacting serine/threonine-protein kinase 3 (Homo sapiens, UniProt Q9Y572); assay: Binding affinity to RIPK3 (unknown origin)
Target sequence in this assay (Q9Y572 whole entry): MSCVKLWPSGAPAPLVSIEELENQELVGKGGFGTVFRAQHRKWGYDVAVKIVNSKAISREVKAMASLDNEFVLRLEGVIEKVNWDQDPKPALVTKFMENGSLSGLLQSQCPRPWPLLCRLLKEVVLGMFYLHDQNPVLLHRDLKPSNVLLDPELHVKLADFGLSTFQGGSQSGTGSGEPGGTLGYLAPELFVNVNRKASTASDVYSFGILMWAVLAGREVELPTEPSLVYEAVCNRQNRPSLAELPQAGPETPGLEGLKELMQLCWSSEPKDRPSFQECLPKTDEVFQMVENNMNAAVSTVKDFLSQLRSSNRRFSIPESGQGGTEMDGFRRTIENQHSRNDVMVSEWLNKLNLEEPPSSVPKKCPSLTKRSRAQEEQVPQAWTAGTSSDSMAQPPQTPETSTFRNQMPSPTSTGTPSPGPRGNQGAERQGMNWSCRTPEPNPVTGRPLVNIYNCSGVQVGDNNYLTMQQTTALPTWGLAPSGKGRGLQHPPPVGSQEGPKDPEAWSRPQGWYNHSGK

Homo sapiens = organism: Homo sapiens; assay: Selectivity ratio of Kd for RIPK3 (unknown origin) to Kd for RIPK1 (unknown origin)
Mus musculus [7] = assay: Protection against mTNF-alpha induced SIRS in C57BL/6J mouse assessed as increase in survival rate at 10 mg/kg preincubated for 1 hr followed by mTNF-alpha addition measured upto 60 hrs; assay type: functional; settings: time <= 61 hrs
Mus musculus [8] = assay: Protection against mTNF-alpha induced SIRS in C57BL/6J mouse assessed as increase in survival rate at 5 mg/kg preincubated for 1 hr followed by mTNF-alpha addition measured upto 60 hrs; assay type: functional; settings: time <= 61 hrs
Mus musculus [9] = assay: Protection against mTNF-alpha induced SIRS in C57BL/6J mouse assessed as increase in survival rate at 2.5 mg/kg preincubated for 1 hr followed by mTNF-alpha addition measured upto 60 hrs; assay type: functional; settings: time <= 61 hrs
[10] = molecular target: T3, Receptor-interacting serine/threonine-protein kinase 1 (Homo sapiens) (UniProt Q13546); assay: Inhibition of RIPK1 phosphorylation in TSZ induced human HT-29 cells at 100 nM incubated for 2 to 6 hrs by immunoblotting analysis; assay type: cell-based; settings: time 2-6 hrs
T3 sequence (whole entry): T1 sequence (Q13546 whole entry)

[11] = molecular target: T4, Mixed lineage kinase domain-like protein (Homo sapiens) (UniProt Q8NB16); assay: Inhibition of MLKL phosphorylation in TSZ induced human HT-29 cells at 100 nM incubated for 2 to 6 hrs by immunoblotting analysis; assay type: cell-based; settings: time 2-6 hrs
T4 sequence (whole entry): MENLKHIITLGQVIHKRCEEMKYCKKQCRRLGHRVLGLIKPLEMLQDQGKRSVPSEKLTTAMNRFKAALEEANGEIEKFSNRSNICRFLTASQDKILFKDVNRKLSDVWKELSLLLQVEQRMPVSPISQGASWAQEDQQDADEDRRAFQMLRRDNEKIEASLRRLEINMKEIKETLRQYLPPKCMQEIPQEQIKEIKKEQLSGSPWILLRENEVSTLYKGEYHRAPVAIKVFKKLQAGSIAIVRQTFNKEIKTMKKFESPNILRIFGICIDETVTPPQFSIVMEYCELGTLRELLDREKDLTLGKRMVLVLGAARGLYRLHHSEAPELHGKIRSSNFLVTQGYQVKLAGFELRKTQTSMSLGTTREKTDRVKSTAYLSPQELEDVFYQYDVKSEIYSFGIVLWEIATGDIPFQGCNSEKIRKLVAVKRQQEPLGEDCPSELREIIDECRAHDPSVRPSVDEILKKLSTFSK

[12] = molecular target: T3, Receptor-interacting serine/threonine-protein kinase 1 (Homo sapiens); assay: Inhibition of RIPK1 phosphorylation in TSZ induced human HT-29 cells incubated for 6 hrs by immunoblotting analysis; assay type: cell-based; settings: dose 25-100 nM
[13] = molecular target: T4, Mixed lineage kinase domain-like protein (Homo sapiens); assay: Inhibition of MLKL phosphorylation in TSZ induced human HT-29 cells incubated for 6 hrs by immunoblotting analysis; assay type: cell-based; settings: dose 25-100 nM
HT-29 [14] = assay: Inhibition of TSZ induced necrosomes formation in human HT-29 cells at 100 nM incubated for 6 hrs by Western blotting analysis; assay type: functional, cell-based
Mus musculus [15] = organism: Mus musculus; assay: Protection against TNF-induced SIRS in C57BL/6J mouse assessed as reduction in body temperature loss preincubated for 1 hr followed by mTNF-alpha addition measured after 6 hrs […]; assay type: functional, organism-based; settings: time 7.0 hrs
[16] = molecular target: T2, Receptor-interacting serine/threonine-protein kinase 3; settings: HT-29, dose 100.0 nM, time 2-6 hrs
Target sequence in this assay (Q9Y572 whole entry, looked up): as the sequence (Q9Y572 whole entry) above
Description: Inhibition of RIPK3 phosphorylation in TSZ induced human HT-29 cells at 100 nM incubated for 2 to 6 hrs by immunoblotting analysis

[17] = molecular target: T2, Receptor-interacting serine/threonine-protein kinase 3; settings: HT-29, dose 25-100 nM, time 6.0 hrs
Target sequence in this assay (Q9Y572 whole entry, looked up): as the sequence (Q9Y572 whole entry) above

Mus musculus [18] = assay: Protection against mTNF-alpha induced SIRS in C57BL/6J mouse assessed as increase in survival rate at 20 mg/kg preincubated for 1 hr followed by mTNF-alpha addition measured upto 60 hrs; assay type: functional; settings: time <= 61 hrs

| SMILES | pEC50 (HT-29 [1]) | CC50 [2] [nM] | other results |
| --- | --- | --- | --- |
| CN1C(=O)[C@@H](NC(=O)c2cc3cccc(-c4ccc(F)c(F)c4)c3[nH]2)COc2ccccc21 | 6.89 | > 100000 | – |
| CN1C(=O)[C@@H](NC(=O)c2cc3cccc(-c4ccc(F)cc4F)c3[nH]2)COc2ccccc21 | 6.41 | > 100000 | pKd [3]: 6.70 |
| Cc1ccc(C)c(-c2cccc3cc(C(=O)N[C@H]4COc5ccccc5N(C)C4=O)[nH]c23)c1 | 5.69 | > 100000 | – |
| CN1C(=O)[C@@H](NC(=O)c2cc3cccc(-c4ccc(C(F)(F)F)cc4)c3[nH]2)COc2ccccc21 | 5.41 | > 100000 | – |
| CN1C(=O)[C@@H](NC(=O)c2nnc(Cc3ccccc3)[nH]2)COc2ccccc21 [GSK2982772] | – | > 50000 | – |
| CN1C(=O)[C@@H](NC(=O)c2cc3cccc(-c4ccccc4)c3[nH]2)COc2ccccc21 | 7.79 | > 100000 | Activity (U-937): Dose-Dependent Effect; Activity (HT-29 [4]): Dose-Dependent Effect; Activity (HT-29 [5]): Active; pKd [6]: 5.62; pKd [3]: 6.72; Selectivity ratio (Homo sapiens): 8; Activity (Mus musculus [7]): 100%; Activity (Mus musculus [8]): 100%; Activity (Mus musculus [9]): 75%; inhibition [10]: Active; inhibition [11]: Active; inhibition [12]: Dose-Dependent Effect; inhibition [13]: Dose-Dependent Effect; inhibition (HT-29 [14]): Active; Activity (Mus musculus [15]): Active; inhibition [16]: Active; inhibition [17]: Dose-Dependent Effect |
| COc1ccccc1-c1cccc2cc(C(=O)N[C@H]3COc4ccccc4N(C)C3=O)[nH]c12 | 6.11 | > 100000 | – |
| CN1C(=O)[C@@H](NC(=O)c2cc3cccc(-c4c(F)cccc4F)c3[nH]2)COc2ccccc21 | 5.66 | > 100000 | – |
| CN1C(=O)[C@@H](NC(=O)c2cc3cccc(-c4cccc(F)c4)c3[nH]2)COc2ccccc21 | 7.02 | > 100000 | – |
| CN1C(=O)[C@@H](NC(=O)c2cc3cccc(-c4ccc(-c5ccccc5)cc4)c3[nH]2)COc2ccccc21 | 6.36 | > 100000 | – |
| Cc1cccc(C)c1-c1cccc2cc(C(=O)N[C@H]3COc4ccccc4N(C)C3=O)[nH]c12 | 5.83 | > 100000 | – |
| CN1C(=O)[C@@H](NC(=O)c2cc3cccc(-c4cc(F)ccc4F)c3[nH]2)COc2ccccc21 | 7.05 | > 100000 | pKd [3]: 6.72 |
| CN1C(=O)[C@@H](NC(=O)c2cc3cccc(-c4ccccc4F)c3[nH]2)COc2ccccc21 | 7.49 | > 100000 | pKd [3]: 6.72 |
| Cc1ccc(-c2cccc3cc(C(=O)N[C@H]4COc5ccccc5N(C)C4=O)[nH]c23)cc1 | 5.90 | > 100000 | – |
| Cc1ccc(-c2cccc3cc(C(=O)N[C@H]4COc5ccccc5N(C)C4=O)[nH]c23)c(C)c1 | 5.36 | > 100000 | – |
| CN1C(=O)[C@@H](NC(=O)c2cc3cccc(-c4ccccc4C(F)(F)F)c3[nH]2)COc2ccccc21 | 6.79 | > 100000 | – |
| CN1C(=O)[C@@H](NC(=O)c2cc3cccc(-c4ccccc4-c4ccccc4)c3[nH]2)COc2ccccc21 | < 5.00 | > 100000 | – |
| Cc1ccccc1-c1cccc2cc(C(=O)N[C@H]3COc4ccccc4N(C)C3=O)[nH]c12 | 7.34 | > 100000 | pKd [3]: 6.57 |
| CN1C(=O)[C@@H](NC(=O)c2cc3cccc(-c4cccc(-c5ccccc5)c4)c3[nH]2)COc2ccccc21 | < 5.00 | > 100000 | – |
| CN1C(=O)[C@@H](NC(=O)c2cc3cccc(-c4ccc(F)cc4)c3[nH]2)COc2ccccc21 | 6.45 | > 100000 | – |
| COc1cccc(-c2cccc3cc(C(=O)N[C@H]4COc5ccccc5N(C)C4=O)[nH]c23)c1 | 6.89 | > 100000 | – |
| Cc1cccc(-c2cccc3cc(C(=O)N[C@H]4COc5ccccc5N(C)C4=O)[nH]c23)c1C | 6.52 | > 100000 | – |
| Cc1cccc(-c2cccc3cc(C(=O)N[C@H]4COc5ccccc5N(C)C4=O)[nH]c23)c1 | 6.57 | > 100000 | – |
| Cc1ccc(-c2cccc3cc(C(=O)N[C@H]4COc5ccccc5N(C)C4=O)[nH]c23)cc1C | 5.78 | > 100000 | – |
| CN1C(=O)[C@@H](NC(=O)c2cc3cccc(-c4cccc(F)c4F)c3[nH]2)COc2ccccc21 | 6.84 | > 100000 | pKd [3]: 6.59 |
| COc1ccc(-c2cccc3cc(C(=O)N[C@H]4COc5ccccc5N(C)C4=O)[nH]c23)cc1 | 5.42 | > 100000 | – |
| CN1C(=O)[C@@H](NC(=O)c2cc3cccc(-c4cccc(C(F)(F)F)c4)c3[nH]2)COc2ccccc21 | 5.69 | > 100000 | – |
| CN1C(=O)[C@@H](NC(=O)c2n[nH]c(Cc3ccccc3)n2)COc2ccccc21 [GSK2982772] | 8.39 | – | Activity (Mus musculus [15]): Active; Activity (Mus musculus [18]): 90% |
| CN1C(=O)[C@@H](NC(=O)c2cc3cccc(-c4ccc5ccccc5c4)c3[nH]2)COc2ccccc21 | 4.74 | > 100000 | – |
| CN1C(=O)[C@@H](NC(=O)c2cc3cccc(-c4cccc5ccccc45)c3[nH]2)COc2ccccc21 | 6.02 | > 100000 | – |

Source: ChEMBL document CHEMBL5325468, “Scaffold hopping derived novel benzoxazepinone RIPK1 inhibitors as anti-necroptosis agents” (Bioorg Med Chem, 2023)
